PMC10384936, “Identification and Biological Characterization of the Pyrazolo[3,4-d]pyrimidine Derivative SI388 Active as Src Inhibitor” (Pharmaceuticals, 2023)

Columns and labels:
Src = molecular target: T1, Src (Homo sapiens, UniProt P12931); assay: Src enzymatic assay (ADP-Glo kinase assay); type: biochemical; settings: for Ki: mean of at least three experiments, 100 μM ATP
T1 construct: purchased Merck-Millipore
Experimental: (§1) Src, Fyn, and Abl were purchased from Merck-Millipore. Reactions were performed according to the manufacturer’s instructions with minor modifications. All substrates were used at least at twice the concentration of apparent Km. In detail: Src reactions were performed using 500 μM Src-peptide (KVEKIGEGTYGVVYK), 100 μM ATP, and 0.00087% NP-40; Fyn reactions were performed using 360 μM Src-peptide (KVEKIGEGTYGVVYK), 200 μM ATP, and 0.0026% NP-40; Abl reactions were performed using 50 μM abltide (EAIYAAPFAKKK), 30 μM ATP, and 0.00087% NP-40. All reactions were performed using 10–50 ng of enzyme and 10% DMSO in 10 μL of kinase buffer (8 mM MOPS-NaOH pH7.0, 0.2 mM EDTA, 10 mM MgAc) at 30 °C for 10 min.
(§2) To avoid peptide adsorbing to the plastic surface, protein low-binding tubes were used. ADP-Glo kinase assay (Promega) was then used to detect kinase activity according to the manufacturer’s instructions with minor modifications. In detail, reactions were transferred to white 384 well-plates and stopped by adding 10 µL of ADP-Glo reagent (Promega) for 50 min at room temperature. A total of 20 μL of detection reagent (Promega) was then added for 30 min and the reaction read using a GloMax Discover microplate reader (Promega). Data were plotted using GraphPad Prism 5.0. IC50 values were obtained according to Equation (1):v = V/{1 + (I/IC50)} (1) where v is the measured reaction velocity, V is the apparent maximal velocity in the absence of inhibitor, I is the inhibitor concentration, and IC50 is the 50% inhibitory dose. Compounds tested were assumed to act as fully ATP-competitive inhibitors. Therefore, Ki values were calculated according to Equation (2):Ki = IC50/(1+ […]) (2) where Ki is the affinity of the inhibitor to the enzyme, S is the ATP concentration, and Km is the affinity of ATP calculated according to the Michaelis–Menten equation.

Fyn = molecular target: T2, Fyn (Homo sapiens, UniProt P06241); assay: Fyn enzymatic assay (ADP-Glo kinase assay); type: biochemical
T2 construct: purchased Merck-Millipore
T2 sequence (P06241 whole entry, species assumed): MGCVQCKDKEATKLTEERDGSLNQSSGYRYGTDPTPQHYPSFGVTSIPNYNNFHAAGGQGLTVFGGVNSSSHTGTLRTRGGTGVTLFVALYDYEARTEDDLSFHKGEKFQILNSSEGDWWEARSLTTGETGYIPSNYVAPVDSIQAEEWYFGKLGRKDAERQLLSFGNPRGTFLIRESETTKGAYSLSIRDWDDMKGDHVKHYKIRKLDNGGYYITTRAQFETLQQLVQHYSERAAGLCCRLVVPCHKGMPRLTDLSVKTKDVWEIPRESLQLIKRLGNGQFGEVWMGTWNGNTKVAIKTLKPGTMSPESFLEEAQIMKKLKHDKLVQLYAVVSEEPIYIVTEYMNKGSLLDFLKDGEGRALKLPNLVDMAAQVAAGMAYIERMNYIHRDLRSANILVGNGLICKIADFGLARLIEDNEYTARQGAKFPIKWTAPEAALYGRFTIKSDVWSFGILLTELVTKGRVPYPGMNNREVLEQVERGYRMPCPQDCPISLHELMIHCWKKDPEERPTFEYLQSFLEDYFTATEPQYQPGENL
Experimental: as §1, §2

Abl = molecular target: T3, Abl (Homo sapiens, UniProt P00519); assay: Abl enzymatic assay (ADP-Glo kinase assay); type: biochemical; settings: for Ki: mean of at least three experiments, 30 μM ATP, read-out: Bcr-Abl Ki
T3 construct: purchased Merck-Millipore
T3 sequence (P00519 whole entry, species assumed): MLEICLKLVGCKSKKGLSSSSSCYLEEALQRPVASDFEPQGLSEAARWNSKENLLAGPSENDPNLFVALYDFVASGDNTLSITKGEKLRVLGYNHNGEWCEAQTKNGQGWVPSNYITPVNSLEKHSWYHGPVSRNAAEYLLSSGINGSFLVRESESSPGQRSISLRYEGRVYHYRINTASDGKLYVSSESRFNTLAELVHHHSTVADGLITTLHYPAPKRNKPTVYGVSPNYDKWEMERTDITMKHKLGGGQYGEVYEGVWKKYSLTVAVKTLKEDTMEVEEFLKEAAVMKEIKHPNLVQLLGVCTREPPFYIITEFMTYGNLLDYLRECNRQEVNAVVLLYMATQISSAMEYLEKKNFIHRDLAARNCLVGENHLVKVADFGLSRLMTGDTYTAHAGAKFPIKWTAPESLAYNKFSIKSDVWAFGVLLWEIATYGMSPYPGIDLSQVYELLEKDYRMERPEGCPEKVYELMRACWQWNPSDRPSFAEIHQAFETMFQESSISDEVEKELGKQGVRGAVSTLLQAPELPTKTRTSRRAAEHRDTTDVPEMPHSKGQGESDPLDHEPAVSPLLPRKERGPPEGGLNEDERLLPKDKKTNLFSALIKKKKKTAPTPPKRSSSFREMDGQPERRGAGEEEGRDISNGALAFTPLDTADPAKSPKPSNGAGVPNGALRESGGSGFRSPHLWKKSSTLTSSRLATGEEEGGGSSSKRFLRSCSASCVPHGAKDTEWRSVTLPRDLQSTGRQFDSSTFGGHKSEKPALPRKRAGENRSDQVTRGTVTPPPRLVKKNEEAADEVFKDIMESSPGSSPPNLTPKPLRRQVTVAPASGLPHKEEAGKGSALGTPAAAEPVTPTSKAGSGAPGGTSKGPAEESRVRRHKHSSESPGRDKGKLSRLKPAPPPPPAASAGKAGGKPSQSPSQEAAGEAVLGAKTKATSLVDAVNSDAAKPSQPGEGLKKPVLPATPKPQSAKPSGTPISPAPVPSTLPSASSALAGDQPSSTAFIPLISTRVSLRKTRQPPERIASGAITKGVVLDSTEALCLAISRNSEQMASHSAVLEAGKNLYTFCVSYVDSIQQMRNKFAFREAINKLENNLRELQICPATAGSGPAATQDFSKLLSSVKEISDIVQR
Experimental: as §1, §2

[1] = tested on: Src phosphorylation on Tyr416 in U251 cells; assay: Immunoblotting of pY416-Src in U251 cells; type: cell-based; settings: 10 nM and 1 µM, 24 h, vs DMSO
Experimental: Dasatinib (Sigma Aldrich, DAS, Merck Millipore, Burlington, MA, USA), SI388 and SI83 were used at different concentration (10 nM, 1 µM or 25 µM) for 24 h upon serum deprivation. DMSO (Sigma Aldrich) was used as the control.
(§3) Cell extracts were prepared in RIPA (50 mM Tris-HCl pH 8.0, 150 mM NaCl, 1% NP40, 1 mM EGTA, 1 mM EDTA, 0.25% sodium deoxycholate) or IP buffer (50 mM Tris–HCl pH 7.5, 250 mM NaCl, 1% NP-40, 5 mM EDTA, 5 mM EGTA) supplemented with protease and phosphatase inhibitors (Roche Diagnostic, Mannheim, Germany). For immunoblotting, 25–30 µg of protein was separated by sodium dodecyl sulfate (SDS) polyacrylamide gel electrophoresis (PAGE), blotted onto nitrocellulose membrane, and detected with specific antibodies.

T98G cells [2] = assay: Clonogenic assay, T98G; type: cell-based; settings: 10 nM, 1 µM, 25 µM for 24 h, colonies after 15 days
Experimental: (§4) To further characterize the ability of SI388 to inhibit tumor growth, we performed clonogenic assays using T98G and U251 cell lines. Cells were starved and treated for 24 h with increasing concentration (10 nM, 1 µM, and 25 µM) of SI388 or DAS. The ability of single cells to proliferate and produce colonies was evaluated after 15 days, both in control conditions (treated with DMSO) and after treatment with different Src inhibitors.
(§5) For colony formation, control and irradiated (5 Gy) cells were seeded at the concentration of 1000 cells/dish in 6-well culture plates and incubated at 37 °C, 5% CO2 for 10–15 days.
(§6) Crystal violet solution (10% (v/v) methanol and 0.5% Crystal Violet) was used to fix and stain colonies, upon 20 min incubation. The stained colonies (>50 cells) were counted under a microscope or using Image “Colonyarea” plugin. Data were expressed as the mean and SD of three independent experiments.

U251 cells [3] = assay: Clonogenic assay, U251; type: cell-based; settings: 10 nM, 1 µM, 25 µM for 24 h, colonies after 15 days
Experimental: as §4, §5, §6

T98G cells [4] = assay: MTS cell viability assay, T98G; type: cell-based; settings: 72 h, 10 nM, 1 µM, 25 µM
Experimental: (§7) Next, the ability of SI388 to inhibit cell viability was evaluated using an MTS assay.
(§8) Cells were plated in 96 multiwells (1000 cells/well) in 100 µL of the complete medium. The following day, after 24 h of starvation, the cells were treated with DMSO, dasatinib or SI388 at different concentrations (10 nM, 1 µM, 25 µM). After 72 h, cells were treated with tetrazolium (Promega) for 1–2 h. The quantity of formazan product is directly proportional to the number of living cells in the culture. The plate is then read with a plate reader measuring the absorbance of 490 nm for the different conditions.

U251 cells [5] = assay: MTS cell viability assay, U251; type: cell-based; settings: 72 h, 10 nM, 1 µM, 25 µM
Experimental: as §7, §8

[6] = tested on: Src phosphorylation on Tyr416 in GBMSC83 cells; assay: Immunoblotting of pY416-Src in GBMSC83 cells; type: cell-based; settings: 1 µM, 24 h
Experimental: as §3

GBMSC83 cells [7] = assay: Neurosphere formation, cell counting and sphere size, GBMSC83; type: cell-based; settings: 1 µM, 72 h, vs control
Experimental: GBMSC83 cells were seeded at the density of 1 × 10^4 cells/well in a 96-well ultralow attachment plate, and the following day they were treated with SI388 1 µM or dasatinib 1 µM. After 72 h from treatment, cells were stained with Hoechst 33,342 (Thermo Fisher Scientific) and images were acquired with Fluorescence microscopy (ZEISS) and processed with Fiji version 2.3. Hoechst positive nuclei were counted by particle detection instrument of ComDet Plugin of Fiji. The bright fields were acquired and processed by Cell Profiler version 2.1.1 to measure spheres’ diameter and reported as the fold change from the control condition.

T98G cells [8] = assay: MTS assay after ionizing radiation, T98G; type: cell-based; settings: 1 µM pre-treatment 24 h, IR 10 Gy, 48 h after IR, statistically significant
Experimental: (§9) To this aim, T98G and U251 cells were pre-incubated or not with SI388 for 24 h and then irradiated (10 Gy).
as §8

U251 cells [9] = assay: MTS assay after ionizing radiation, U251; type: cell-based; settings: 1 µM pre-treatment 24 h, IR 10 Gy, 48 h after IR, not statistically significant
Experimental: as §9, §8

GBMSC83 cells [10] = assay: Cell death analysis, Annexin V-PI cytofluorimetry after IR, GBMSC83; type: cell-based; settings: 1 µM pre-treatment 24 h, IR 10 Gy, 48 h after IR, vs control
Experimental: GBMSC83 cells were pretreated with 1 µM SI388 or 1 µM DAS, or DMSO as a control, for 24 h and then irradiated (10 Gy). After 48 h from IR, cytofluorimetric analysis of AnnexinV-PI staining was performed.
1 × 10^6 cells were analyzed for cell death 48 h from ionizing radiation (10 Gy) upon staining with Annexin V-APC-propidium iodide (PI) kit, according to manufacturer instructions (eBioscience™ Annexin V apoptosis detection kits, ThermoFisher Scientific, Waltham, MA, USA). Unstained samples were used as the control. CytoFLEX S (Beckman Coulter, Milan, Italy) instrument was used to quantify the double staining. Quality control was evaluated using CytoFLEX Daily QC Fluorospheres (Beckman Coulter). CytExpert version 2.2 software (Beckman Coulter) was used to analyze FCS files. Dead cells were graphed as fold change to control conditions.

Bcr-Abl = molecular target: Bcr-Abl; design: method as in PMID 23746084, PMID 28650650, PMID 25469771, PMID 21443205, PMID 17929792; settings: in-house lead compounds, Figure 1; cited from earlier work
NB = tested on: NB; design: method as in PMID 28650650, PMID 25469771; settings: cited from earlier work
GBM = tested on: GBM; design: method as in PMID 28650650, PMID 25469771; settings: cited from earlier work
osteosarcoma = tested on: osteosarcoma; design: method as in PMID 17929792; settings: cited from earlier work
32D-T315I CML cells = settings: mice inoculated with 32D-T315I CML cells; cited from earlier work

T1 sequence (P12931 whole entry, species assumed): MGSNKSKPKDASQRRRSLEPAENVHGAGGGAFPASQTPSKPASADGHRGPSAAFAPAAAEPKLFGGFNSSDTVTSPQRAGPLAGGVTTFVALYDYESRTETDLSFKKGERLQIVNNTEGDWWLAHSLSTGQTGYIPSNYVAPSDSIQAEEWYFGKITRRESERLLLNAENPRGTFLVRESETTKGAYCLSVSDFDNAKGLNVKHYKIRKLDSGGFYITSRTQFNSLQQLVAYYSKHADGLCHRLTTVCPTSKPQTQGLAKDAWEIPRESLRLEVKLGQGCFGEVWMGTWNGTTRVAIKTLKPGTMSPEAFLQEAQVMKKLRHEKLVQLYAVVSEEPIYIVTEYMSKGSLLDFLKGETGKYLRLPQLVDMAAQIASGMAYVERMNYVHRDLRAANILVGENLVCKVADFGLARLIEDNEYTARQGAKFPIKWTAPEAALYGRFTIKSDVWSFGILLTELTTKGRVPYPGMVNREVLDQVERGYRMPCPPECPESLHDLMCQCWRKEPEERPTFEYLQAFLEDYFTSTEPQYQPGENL

## CSc1nc(Nc2ccccc2Cl)c2cnn(CC(Cl)c3ccccc3)c2n1 (stereo not drawn) [2a, 1-(2-Chloro-2-phenylethyl)-N-(2-chlorophenyl)-6-(methylthio)-1H-pyrazolo[3,4-d]pyrimidin-4-amine]
Src; 10 µM
  inhibition at 10 µM: 90%
Src
  Ki: 0.423 ± 0.093 µM
Fyn; 10 µM
  inhibition at 10 µM: 90.7%
Fyn; mean of at least three experiments, 200 μM ATP
  Ki: 0.419 ± 0.075 µM
Abl; 10 µM
  inhibition at 10 µM: 72%
Abl
  Ki: 0.45 ± 0.29 µM
[1]
  Src phosphorylation on Tyr416 (pY416-Src): reduction in Src phosphorylation on Tyr416
T98G cells [2]
  Colony formation (cell growth and proliferation): impaired cell growth and proliferation in a dose-dependent manner
U251 cells [3]
  Colony formation (cell growth and proliferation): impaired cell growth and proliferation in a dose-dependent manner
T98G cells [4]
  Cell viability (MTS): significantly impaired cell viability
U251 cells [5]
  Cell viability (MTS): significantly impaired cell viability
[6]
  Phosphorylation of Src on Tyr416: significant reduction in phosphorylation of Src on Tyr416
GBMSC83 cells [7]
  Mean neurosphere diameter: overall reduced diameter of the spheres
  Number of cells per sphere: reduced average number of cells per sphere
T98G cells [8]
  Sensitivity to IR (inhibition of cell viability, MTS): increases the sensitivity to IR
U251 cells [9]
  Sensitivity to IR (inhibition of cell viability, MTS): increases the sensitivity to IR
GBMSC83 cells [10]
  Percentage of cell death after IR (AnnexinV-PI): significantly increased the percentage of cell death

## ClC(Cn1ncc2c(Nc3cccc(Br)c3)nc(SCCN3CCOCC3)nc21)c1ccccc1 (stereo not drawn) [1c]
Bcr-Abl
  Ki: 0.12 µM
NB
  Activity in in vivo model of NB: showed activity
GBM
  Activity in in vivo model of GBM: showed activity

## Cc1nc(Nc2ncc(C(=O)Nc3c(C)cccc3Cl)s2)cc(N2CCN(CCO)CC2)n1 [dasatinib, reference compound]
T98G cells [2]
  Colony formation (cell growth and proliferation): impaired cell growth and proliferation in a dose-dependent manner
U251 cells [3]
  Colony formation (cell growth and proliferation): impaired cell growth and proliferation in a dose-dependent manner
GBMSC83 cells [7]
  Mean neurosphere diameter: overall reduced diameter of the spheres
  Number of cells per sphere: reduced average number of cells per sphere
GBMSC83 cells [10]
  Percentage of cell death after IR (AnnexinV-PI): significantly increased the percentage of cell death

## CSc1nc(Nc2cccc(Cl)c2)c2cnn(CC(Cl)c3ccccc3)c2n1 (stereo not drawn) [1a, reference compound]
Src
  Ki: 0.6 µM
Abl
  Ki: 0.6 µM
Bcr-Abl
  Ki: 0.6 µM
osteosarcoma
  Activity in xenograft mouse model of osteosarcoma: active

## ClC(Cn1ncc2c(Nc3ccccc3)ncnc21)c1ccc(Br)cc1 (stereo not drawn) [1b]
32D-T315I CML cells
  Reduction of tumor volume: more than 50%
